Tests used:
[1] = system: CSF1R phosphorylation in THP-1 cells; assay: p-CSF1R ELISA assay in THP1 cells; type: cell-based; conditions: Homo sapiens, THP1 cells pre-treated one hour, stimulated with hCSF1, read-out: THP1 pCSFIR ELISA EC50
[2] = system: CSF1R phosphorylation in BV2 cells; assay: p-CSF1R Western blot assay in BV2 cells; type: cell-based, murine; conditions: Mus musculus, BV-2, 30 minutes pretreatment, CSF1 100 ng/mL 5 minutes
[3] = system: ERK1/2 phosphorylation in BV2 cells; assay: p-ERK1/2 Western blot assay in BV2 cells; type: cell-based, murine; conditions: Mus musculus, BV-2, 30 minutes pretreatment, CSF1 100 ng/mL 5 minutes
BV2 cells = assay: BV2 cell proliferation (Cell Titer Glo); type: cell-based, murine; conditions: Mus musculus, BV-2, CSF1 100 ng/mL, 72 h
[4] = system: CSF1R phosphorylation in THP-1 cells; assay: Inhibition of CSF1R phosphorylation in THP-1 monocytes (ELISA, Table D); type: cell-based, human; conditions: FIG. 6
Description: The THP-1 human monocyte-like cell line has intact CSF1R signaling that allows for the probing of the activation status of this pathway when stimulated by recombinant CSF. THP-1 cells were expanded in-vitro and pretreated with CSF1R inhibitors for an hour prior to stimulation with recombinant human M-CSF for 5 minutes. The cells were lysed, and the lysate was probed for activated CSF1R (pCSF1R) using ELISA. Using GraphPad Prism, a four-parameter logistic regression was applied to determine the potency of the CSF1R inhibitors.

[5] = Plasma protein binding study; type: in vitro ADME; conditions: mouse plasma, equilibrium dialysis 4 hours; read-out: PPB-mouse (Bound) (%) (converted)
Description: On the day of experiment, the plasma was thawed under running cold tap water and centrifuged at 3220×g for 5 min to remove any clots. The pH value was checked and recorded. Only plasma within range of pH 7.0 to pH 8.0 was used. Pretreat the dialysis membrane according to the manufacturer's instructions: the dialysis membrane strips were soaked in ultra pure water at room temperature for approximately 1 hr. After that, each membrane strip that contains 2 membranes was separated and soaked in ethanol:water (20:80 v:v) for approximately 20 min, after which it was ready for use or was stored in the solution at 2-8° C. for up to 1 month. Prior to the experiment, the membrane was rinsed and soaked for 20 min in ultra pure water for use. Working solutions (400 μM) of test compound and control compound were prepared. Aliquots of working solutions (3 μL) were spiked into blank matrix (597 μL) to achieve final concentrations and mixed thoroughly. Aliquots of 50 μL loading matrix containing test compound or control compound in triplicate was transferred to Sample Collection Plate, respectively. The samples were matched with opposite blank buffer to obtain a final volume of 100 μL with a volume ratio of matrix:Dialysis Buffer (1:1, v:v) in each well immediately. The stop solution was added to these T0 samples of test compound and control compound. The plate was sealed and shaked at 800 rpm for 10 min. Then these T0 samples were stored at 2-8° C. pending further process along with other post-dialysis samples. The dialysis instrument was assembled following manufacture's instructions. An aliquot of 100 μL of the loading matrix containing test compound or control compound was transferred to the donor side of each dialysis well in triplicate and 100 μL of the Dialysis Buffer was loaded to the receiver side of the well. Then the plate was rotated at approximately 100 rpm in a humidified incubator with 5% CO2 at 37±1° C. for 4 hours. At the end of the dialysis, aliquots of 50 μL samples from the buffer side and matrix side of the dialysis device were taken into new 96-well plates (Sample Collection Plates). An equal volume of opposite blank matrix (buffer or matrix) in each sample was added to reach a final volume of 100 μL with volume ratio of matrix:Dialysis Buffer at 1:1 (v:v) in each well. All samples were further processed by protein precipitation for LC/MS/MS analysis.

[6] = system: microglia (Iba1+ cells) in cortex and hippocampus; assay: In vivo microglial depletion; parameters: species or system C57BL/6 mice; conditions: for Mean Cortical Ibal + Cell Density ± SEM (mm^−2) / Mean Hippocampal Ibal + Cell Density ± SEM (mm^−2): oral gavage BID 7 days; for Mean Cortical Ibal + Cell Density ± SEM (mm^−2): cortex; for Mean Hippocampal Ibal + Cell Density ± SEM (mm^−2): hippocampus
Description: To measure the in vivo pharmacodynamic effect, we quantified microglial depletion following repeated dosing of our compound in naive animals. Female C57BL/6 mice were given Example 134 (0, 50, 100, or 200 mg/kg/day, respectively) by oral gavage BID for 7 days. Following the final dose, mice were perfused with PBS followed by 4% paraformaldehyde (PFA). Brains were post-fixed overnight in 4% PFA and then transferred to 30% sucrose solution. Sagittal sections were sliced and stained for the microglial marker Iba1 and counterstained for DAPI. Brain sections were then imaged under 20× wide-field imaging, and the microglia density was quantified in the cortex and hippocampus.

COc1ccc(COc2ncc(Cc3ccnc4cc(OC)cnc34)cc2OC)nc1 [Example 16, 3-methoxy-8-((5-methoxy-6-((5-methoxypyridin-2-yl)methoxy)pyridin-3-yl)methyl)-1,5-naphthyridine]
EC50 [1]: 10.8 nM
EC50 [2]: 47.2 nM
EC50 [3]: 21.4 nM
EC50 (BV2 cells): 45.4 nM
CSF1R phosphorylation in CSF1R-stimulated THP-1 monocytes [4]: dose-dependent inhibition of CSF1R phosphorylation
fraction unbound at 4 h, 2 µM [5]: 0.0063

COc1cnc2c(Cc3cnc(OCc4cc5n(n4)CCOC5)c(OC)c3)ccnc2c1 [Example 73, 2-(((3-methoxy-5-((7-methoxy-1,5-naphthyridin-4-yl)methyl)pyridin-2-yl)oxy)methyl)-6,7-dihydro-4H-pyrazolo[5,1-c][1,4]oxazine]
fraction unbound at 4 h, 2 µM [5]: 0.01

COc1ccc(COc2ncc(Cc3ccnc4cc(N5CCN(C)CC5)cnc34)cc2OC)nc1 [Example 116]
fraction unbound at 4 h, 2 µM [5]: 0.042

COc1cnc2c(Cc3cnc(OCc4cc5n(n4)C[C@H](OC)C5)c(OC)c3)ccnc2c1 [Example 136, (R)-3-methoxy-8-((5-methoxy-6-((5-methoxy-5,6-dihydro-4H-pyrrolo[1,2-b]pyrazol-2-yl)methoxy)pyridin-3-yl)methyl)-1,5-naphthyridine]
fraction unbound at 4 h, 2 µM [5]: 0.005

COc1ccc(COc2ncc(Cc3ccnc4cc(-c5ccn(C)n5)cnc34)cc2OC)nc1 [Example 134, 8-((5-methoxy-6-((5-methoxypyridin-2-yl)methoxy)pyridin-3-yl)methyl)-3-(1-methyl-1H-pyrazol-3-yl)-1,5-naphthyridine]
decrease of microglia density in the cortex compared to vehicle control ([6]; 50 mg/kg): > 22%
Mean Cortical Ibal + Cell Density ± SEM (mm^−2) ([6]; 50 mg/kg): 63.6 ± 8.1 mm^−2
Mean Hippocampal Ibal + Cell Density ± SEM (mm^−2) ([6]; 50 mg/kg): 73.3 ± 7.8 mm^−2
decrease of microglia density in the cortex compared to vehicle control ([6]; 100 mg/kg): > 91%
decrease of microglia density in the hippocampus relative to vehicle control ([6]; 100 mg/kg): > 83%
Mean Cortical Ibal + Cell Density ± SEM (mm^−2) ([6]; 100 mg/kg): 6.9 ± 1.2 mm^−2
Mean Hippocampal Ibal + Cell Density ± SEM (mm^−2) ([6]; 100 mg/kg): 13.6 ± 2.2 mm^−2
decrease of microglia density in the cortex compared to vehicle control ([6]; 200 mg/kg): > 98%
decrease of microglia density in the hippocampus relative to vehicle control ([6]; 200 mg/kg): > 93%
Mean Cortical Ibal + Cell Density ± SEM (mm^−2) ([6]; 200 mg/kg): 1.5 ± 0.3 mm^−2
Mean Hippocampal Ibal + Cell Density ± SEM (mm^−2) ([6]; 200 mg/kg): 5.6 ± 0.9 mm^−2
fraction unbound at 4 h, 2 µM [5]: 0.008

— patent publication US20250360145A1, “CSF-1R INHIBITORS AND USES THEREOF” (Myrobalan Therapeutics, Inc., priority 2022, published 2025)
